Measurements published in patent publication US10472663B2, “Procedure for the rapid determination of bacterial susceptibility to antibiotics that inhibit protein synthesis” (ABM TECHNOLOGIES, LLC, priority 2015, dated 2019).

Assays:
Type in all cases: cell-based
Klebsiella pneumoniae = assay: Variant Micromax assay of cell wall damage by meropenem after tobramycin, twelve strains; settings: for cell wall lysis by meropenem: tobramycin 4 μg/ml 15 min followed by meropenem 1 μg/ml 60 min
Procedure: After incubation cells were processed using a variant Micromax technology to visualize the affectation or not of the cell wall based on the release or not of the nucleoids contained inside the bacteria. In the same manner described previously, samples from cells from the culture are immersed in an agarose microgel on a slide and incubated with a specific lysing solution that removes the cell wall only in those bacteria whose peptidoglycan was affected, thus releasing in the microgel the nucleoids contained inside. […] The processed bacteria in microgel are dried, stained with a high sensitive fluorochrome for DNA like SYBR Gold and visualized under fluorescence microscopy.
Further exemplifying the concept described above twelve strains of Klebsiella pneumoniae, 7 susceptible and 5 resistant to tobramycin, were processed using the same rationale and procedure. Specifically, one portion of each was incubated with tobramycin at 4 μg/ml for 75 min. Another portion was incubated with Meropenem at 1 μg/ml for 60 min. Still another portion was incubated with tobramycin at 4 μg/ml for 15 minutes followed by meropenem at 1 μg/ml for 60 min, without removing the tobramycin. A final portion remained without any antibiotics.

Escherichia coli [1] = assay: Variant Micromax assay of cell enlargement by low-dose mitomycin C after tobramycin (Example 8)
Procedure: As an example, two strains of Escherichia coli exponentially growing in Mueller-Hinton broth were incubated under four different conditions and then assayed. One strain was susceptible and the other resistant to the aminoglycoside tobramycin (an inhibitor of protein synthesis). For the purpose of rapidly distinguishing susceptible and non-susceptible strains to tobramycin each strain was incubated under four conditions.
A portion of each strain was incubated with tobramycin at 4 μg/ml for 90 minutes. As described previously, this dose is indicated by the CLSI as the breakpoint of susceptibility to tobramycin in the standard antibiogram based on microdilution. Another portion of both strains was incubated in Mitomycin C at 0.5 μg/ml for 60 minutes. Still another portion of each strain was incubated with tobramycin at 4 μg/ml for 30 minutes followed by mitomycin C at 0.5 μg/ml for 60 minutes, without removing the tobramycin. A final portion of both strains was not incubated with either antibiotic.
After the incubation, cells were processed using a variant Micromax technology to visualize any enlargement or not of the bacteria. Samples from cells from the culture were immersed in an agarose microgel on a slide, dried, stained with a highly sensitive fluorochrome for DNA like SYBR Gold and visualized under fluorescence microscopy to visualize cell shape and size. Images were similar those correspondent to the previous figure.

Escherichia coli [2] = assay: Micromax assay of mitomycin C-induced DNA fragmentation after tobramycin (Example 2); settings: for DNA fragmentation of nucleoids: tobramycin 4 μg/ml 30 min followed by mitomycin C 50 μg/ml 60 min
Procedure: FIGS. 7-9 depict a TG1 strain susceptible to the aminoglycoside tobramycin, an inhibitor of protein synthesis, and mitomycin C, an agent which induces DNA damage. The other strain illustrated in FIGS. 10-12 was a clinical isolate resistant to tobramycin.
One portion of both bacterial strains was incubated with tobramycin at 4 μg/ml for 90 min (FIGS. 7 and 10), a dosage indicated by the CLSI as the breakpoint of susceptibility to tobramycin in the standard antibiogram based on microdilution. Another portion of both strains was incubated with mitomycin C at 50 μg/ml for 60 min (FIGS. 8 and 11). Still another portion of both strains was incubated with tobramycin at 4 μg/ml for 30 min followed by mitomycin C at 50 μg/ml for 60 min, without removing the tobramycin (FIGS. 9 and 12). A final portion was left with no antibiotic.
After incubation, cells were processed using a variant of the Micromax technology to visualize nucleoids, i.e. bacterial chromosomal DNA, in all the cells of the population. Samples from cells from the culture are immersed in an agarose microgel on a slide and incubated with a specific lysing solution to remove the cell wall in all the cells and release in the microgel the nucleoids contained inside the bacteria. These are dried, stained with a highly sensitive fluorochrome for DNA like SYBR Gold and visualized under fluorescence microscopy, Nucleoids from E. coli obtained using the Micromax assay are represented in FIGS. 7-12, FIGS. 7-9 correspond to a strain susceptible to tobramycin (TG1) and FIGS. 10-12 to a strain resistant to tobramycin.

NC[C@H]1O[C@H](O[C@H]2[C@H](O)[C@@H](O[C@H]3O[C@H](CO)[C@@H](O)[C@H](N)[C@H]3O)[C@H](N)C[C@@H]2N)[C@H](N)C[C@@H]1O [tobramycin]
strains resistant to tobramycin (Klebsiella pneumoniae; of twelve strains): 5 | strains susceptible to tobramycin (Klebsiella pneumoniae; of twelve strains): 7 | cell wall lysis by meropenem (Klebsiella pneumoniae; tobramycin-resistant strains): the affectation of the cell wall by meropenem was not suppressed | cell wall lysis by meropenem (Klebsiella pneumoniae; tobramycin-susceptible strains): no appearance of cell wall lysis by meropenem | cell enlargement (Escherichia coli [1]; tobramycin 4 μg/ml 30 minutes followed by mitomycin C 0.5 μg/ml 60 minutes, tobramycin-resistant strain): appeared enlarged | bacterial shape and size (Escherichia coli [1]; tobramycin alone 4 μg/ml 90 minutes, both strains): does not affect bacterial shape and size | DNA fragmentation of nucleoids (Escherichia coli [2]; tobramycin-resistant clinical isolate): the DNA remained fragmented | DNA fragmentation of nucleoids (Escherichia coli [2]; tobramycin-susceptible TG1 strain): nucleoids without observable DNA fragmentation | modification of nucleoids (Escherichia coli [2]; tobramycin alone 4 μg/ml 90 min, both strains): does not result in modifications of the nucleoids
